# Data as given in patent US6808876B1, “Cellular regulators of infectious agents and methods of use” (Immusol, Inc., priority 2000, dated 2004).
# How the values were obtained:
# [1] = test system: HeLa 5′tk cells; assay: GCV-mediated cell killing of HSV-tk expressing HeLa 5′tk cells; type: cell-based
# Source text: The Hela cell line used in these experiments was modified with a bicistronic reporter gene that confers hygromycin B resistance and GCV […]. The bicistronic reporter gene pHyg-5′tk was constructed with the SV40 promoter driving the expression of hygromycin B phosphotransferase and the 5′ untranslated region of HCV (nucleotides (nt) 38-341) upstream of HSV thymidine kinase (HSV-tk, see FIG. 1). The 5′ nontranslated region of hepatitis C virus (HCV) functions as an internal ribosome entry site (IRES) and is essential for translation of HCV proteins. Transcription of the 5′ nontranslated region allows for IRES-mediated translation of HSV-tk, which converts GCV to the monophosphate which is further metabolized to the triphosphate a cytotoxic analog of GTP. […]
# Translation of HSV-tk-mediated by HCV 5′UTR (cap-independent, HCV nucleotides 38-341) was confirmed by Western blotting analysis of the tk protein. […] The functional activity of tk was determined by administration of GCV to the cell culture medium. […] To confirm that tk expression was mediated by HCV IRES and not from read-through translation of the hygromycin gene, two control plasmids were generated that were identical to the parental, except for deletion of part of the 5′UTR necessary for IRES function. […]
# [2] = test system: untransfected HeLa cells; assay: GCV application to untransfected HeLa cells or cells expressing Core protein in place of tk; type: cell-based; conditions: GCV 10-100 uM
# Experimental: Translation of HSV-tk-mediated by HCV 5′UTR (cap-independent, HCV nucleotides 38-341) was confirmed by Western blotting analysis of the tk protein. The vector was designed such that the authentic HCV Core protein translation start site (AUG at position 342 of the viral RNA) serves as the translation initiation site for the tk gene. The functional activity of tk was determined by administration of GCV to the cell culture medium. […] To confirm that tk expression was mediated by HCV IRES and not from read-through translation of the hygromycin gene, two control plasmids were generated that were identical to the parental, except for deletion of part of the 5′UTR necessary for IRES function. A reporter cell line was generated by electroporation of HeLa cells with pHyg-5′tk and selected with 250 μg/ml hygromycin. Single cell clones of stable HSV-tk expressing cells (HeLa 5′tk cells) were obtained according to standard limited dilution cloning techniques and functionally characterized for GCV-mediated cell killing.
# [3] = target: Herpes simplex virus thymidine kinase (HSV-tk) (Human herpesvirus 1, UniProt P0DTH5); conditions: cited from earlier work
# [4] = test system: HCV Core protein; conditions: for core protein expression, reduced to % of control RzBR1 transduced cells: GCV-resistant cells, remaining level relative to control RzBR1
# Experimental: Upon construction of the retroviral vector pLHPM a cassette translating the HCV Core protein via the HCV IRES was placed into the 3′ part of the LTR transcript. Thereby, cells transduced with the library or single Rz candidates could be analyzed for the HCV Core protein expression by Western blotting. Western blotting was performed on protein lysates using an enhanced chemiluminescent blotting detection kit (Novex), and anti-HCV core monoclonal antibody (6C7 provided by Harry Greenberg, Stanford University). Blots were exposed to film and band intensities measured using a phosphoimager and ImageQuant software. […] Band volumes of HCV Core protein in Western blotting were analyzed by densitometry, normalized towards beta-actin and expressed as percentage relative to the control (RzBR1).
# [5] = test system: LTR-Core and HSV-tk transcripts; assay: Northern blotting of LTR-Core, HSV-tk and GAPDH transcripts; type: cell-based; conditions: normalized to GAPDH, relative to control Rz transduced 5′tk cells
# Experimental: To assure that the observed reductions in Core protein were not caused by reduced levels of RNA transcript, Northern blotting analysis was performed on […] extracted from stable Rz expressors after GCV selection. Total RNA (15 μg per lane) extracted from cultures at 80% confluency was separated by formaldehyde/1% agarose gel electrophoresis and transferred to nylon membrane. The RNAs were probed for different parts of the two vector derived transcripts expressed in these cells: probes were directed against the tk part of the bicistronic transcript or against the Core portion of the retroviral vector transcript respectively. −^32P dCTP labelled probes were hybridized to the membrane in Quickhyb solution (Stratagene) at 65° C. After washing in 2×SSC/0.1%SDS and exposure to film, quantitation of signal was achieved by phosphimager analysis and computer-assisted denistometry as for the Western procedure. Levels of LTR-Core (4.8 kb) and HSV-tk (2.8 kb) transcripts were normalized to signals derived from GAPDH and expressed as percentage of the signal obtained from control Rz transduced 5′tk cells.
# [6] = test system: HCV IRES; assay: Ratio of Core protein to RNA transcript as indicator of HCV IRES translational activity; type: cell-based, Hepatitis C virus; conditions: GCV resistant colonies, compared with control Rz BR1
# Source text: However, to eliminate differences in expression of the retroviral transcript (harboring the 5′ UTR Core transcript) between different Rz vector transduced cells, we used the ratio between expressed Core protein and RNA transcript levels as an indicator of HCV IRES translational activity.
# Chain of Herpes simplex virus thymidine kinase (HSV-tk) (P0DTH5 whole entry): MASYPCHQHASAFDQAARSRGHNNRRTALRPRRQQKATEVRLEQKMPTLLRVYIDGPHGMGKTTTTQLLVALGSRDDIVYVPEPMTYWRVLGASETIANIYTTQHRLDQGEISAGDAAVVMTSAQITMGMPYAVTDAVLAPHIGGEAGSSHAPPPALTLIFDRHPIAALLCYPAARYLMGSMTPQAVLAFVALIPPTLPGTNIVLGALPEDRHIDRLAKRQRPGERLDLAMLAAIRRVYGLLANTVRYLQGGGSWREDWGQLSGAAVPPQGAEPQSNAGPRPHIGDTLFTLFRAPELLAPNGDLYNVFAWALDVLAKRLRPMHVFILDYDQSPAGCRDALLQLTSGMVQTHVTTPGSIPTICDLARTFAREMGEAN
compound,measurement,setting,value
"Nc1nc(O)c2ncn(COC(CO)CO)c2n1 [GCV, [9-(1,3-dihydroxy-2-propoxy)methly] guanine]",cell death on continuous GCV application,"[1]; continuous GCV 10-100 uM, HSV-tk expressing HeLa cells",complete cell death
same,GCV killing of selected HeLa 5′tk clone,[1]; exposure to 20 uM GCV,completely killed
same,effect of GCV application on tk-negative cells,[2],remained unaffected
same,better substrate for HSV-tk compared to mammalian tk,[3],about 1000 fold
"HCV8: hairpin ribozyme conferring GCV resistance, SEQ ID NO:54 (AGCCGAGGAGAATCCCACCAGAGAAACACACGTTGTGGTACATTACCTGGTA; chemistry not given here)",decrease (reduction) in Core protein compared to control Rz transduced cells,"[4]; GCV resistant colonies, normalized to beta-actin, relative to control RzBR1",95%
same,reduction of Core transcript,[5],20%
"HCV6: hairpin ribozyme, SEQ ID NO:52; targets human eIF2Bγ mRNA (TTCTTATTAGAAAGCTACCAGAGAAACACACGTTGTGGTACATTACCTGGTA; chemistry not given here)","core protein expression, reduced to % of control RzBR1 transduced cells",[4],52%
same,reduction of HCV IRES-dependent translatability (ratio Core protein/RNA transcript),[6],83%
"O=c1[nH]c(=O)n([C@@H]2O[C@H](CO)[C@@H](O)[C@@H]2F)cc1I [FIAU, 1-(2″-deoxy-2′-fluoro-1-β-D-arabinofuranosyl-5-ido)uracil]",better substrate for HSV-tk compared to mammalian tk,[3],about 1000 fold
"HCV4: hairpin ribozyme, SEQ ID NO:50; binding sequence partially matches gamma subunit of human eIF2 (CTAACTTTAGAAACTAACCAGAGAAACACACGTTGTGGTACATTACCTGGTA; chemistry not given here)","core protein expression, reduced to % of control RzBR1 transduced cells",[4],42%
same,reduction of HCV IRES-dependent translatability (ratio Core protein/RNA transcript),[6],76%
